# Source: patent US11873295B2, “Allosteric chromenone inhibitors of phosphoinositide 3-kinase (PI3K) for the treatment of disease” (Petra Pharma Corporation, priority 2021, dated 2024)
# Assays:
# [1] = tested on: PI3K-α (PIK3CA) in MDA-MB-453 cells; assay: PI3K-alpha kinase (PIK3CA) activity in vitro cell based assay, MDA-MB-453 cells, AlphaLisa SureFire; settings: 0% FBS, 3 hours treatment, relative IC50
# Protocol: PI3K-Alpha Kinase (PIK3CA) Activity In Vitro Cell Based Assay and Determining IC50 Values for Inhibitors
# The MDA-MB-453 (ATCC-HTB-131) cell line was obtained from the American Type Culture Collection (Manassas, VA). Cells were maintained in Dulbecco's Modified Eagle Media (DMEM, Gibco 11965-092) supplemented with 10% Fetal Bovine Serum, heat inactivated (FBS HI, Gibco 10082-147), 1× non-essential amino acids (NEAA, Gibco 11140-050), and 1 mM sodium pyruvate (Gibco 11360-070). Cultures were maintained in a humidified incubator at 37° C. under 5% CO2/95% air.
# For compound testing in 0% FBS, MDA-MB-453 cells were seeded at a density of 1.5×10^4 cells per well in white 384-well plates in 20 μl of Minimum Essential Media (MEM) assay media with 1×NEAA, 1 mM sodium pyruvate, and 1 μg/mL human insulin (Sigma I9278). Compounds dissolved in 10 mM stock solutions in DMSO were serially diluted 1:3 in DMSO to generate a 10-point dilution series and plated using an acoustic liquid handler system (Echo 550 Series Liquid Handler, Labcyte). A 5× intermediate compound dilution plate in MEM with 1×NEAA and 1 mM sodium pyruvate (150 μM starting compound concentration in 1.5% DMSO) was then prepared. Five μl of the intermediate serially diluted compounds were added to the cell plate to final concentrations ranging from […] in 0.3% DMSO. 0.3% DMSO alone was used to establish the maximum (MAX) signal and GDC-0032 at a final concentration of 1 μM was used as a reference compound for the minimum (MIN) signal. After 3 hours treatment, the medium was removed, and the cells lysed in 10 μL of 1× SureFire Lysis buffer with shaking for 10 minutes at room temperature. The Acceptor Mix (Reaction Buffer 1+Reaction Buffer 2+Activation Buffer+SureFire Ultra Acceptor Beads) was prepared by diluting Activation buffer 25-fold in combined Reaction Buffer 1 and Reaction Buffer 2. The Acceptor beads were diluted 50-fold in the combined Reaction Buffers. Five μL of Acceptor Mix was added to each well, the plate was sealed and covered with foil and incubated for 1 hour at room temperature. The Donor Mix (dilution buffer+SureFire Ultra Donor Beads) was prepared by diluting Donor Beads 50-fold in dilution buffer. Five μL of the Donor Mix was added to each well and the plate sealed and covered with foil and incubated for 1 hour at room temperature in the dark. The plates were read on a Neo2 plate reader instrument from Biotek using standard AlphaLisa settings. Compounds were tested in duplicate and the average % inhibition at each compound concentration was used to generate a single dose response curve. The data were processed using the Genedata-Screener tool. Relative IC50 values were determined using luminescence units by calculating percent inhibition with respect to the in-plate “MIN” (GDC-0032 reference control) and “MAX” (DMSO) controls. The data was analyzed using a 4-parameter nonlinear logistic equation (four-parameter logistic concentration-response curve): Y=bottom+[(top−bottom)/1+(X/IC50)slope] where Y=% inhibition, X=concentration of inhibitor, bottom=minimum value of y attained by curve-fit, top=maximum value of y attained by curve-fit and slope=steepness of curve at the IC50. % Inhibition=[(signal at X−median Min)/(median Max−median Min)]×100 IC50: concentration of compound that reduces a given response (ligand binding, enzyme response) by 50%. Relative IC50: concentration giving half the compound's maximum response.
# For IC50 values shown in Table B, “A” means IC50<50 nM; “B” means IC50 ranging between 50 nM and 100 nM; “C” means IC50 ranging between 100 nM and 500 nM; “D” means IC50>500 nM.
# [2] = target: T1, human full length PIK3KA H1047R mutant (p110α/p85α complex) (Homo sapiens, UniProt P42336, H1047R); assay: PI3K-alpha kinase (PIK3CA) biochemical activity, H1047R mutant, ADP-Glo; settings: PI3K-α (PIK3CA) biochemical, H1047R mutant, Soy PI lipid substrate
# T1 construct: Recombinant, catalytically active human full length PIK3KA Wild-type and H1047R mutant were purchased as 1:1 complex; 6xHis (N); purchased EMD Millipore Sigma 14-792M
# Method in brief: (§1)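 ADP formation, read by ADP-Glo, is run to about 10% ATP turnover at 27 °C with 20 μM ATP and 50 μM PIP2diC8 or soy PI. WT or H1047R p110α/p85α (1–5 nM) is pre-incubated 1 h with compound in HEPES pH 7.4/MgCl2/Triton buffer, 1% DMSO. 10-point 1:3 series, logistic IC50 versus no-enzyme and DMSO controls.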
# [3] = target: T2, human full length PIK3KA Wild-type (p110α/p85α complex) (Homo sapiens, UniProt P42336); assay: PI3K-alpha kinase (PIK3CA) biochemical activity, wild-type, ADP-Glo; settings: PI3K-α (PIK3CA) biochemical, Soy PI lipid substrate
# T2 construct: Recombinant, catalytically active human full length PIK3KA Wild-type and H1047R mutant were purchased as 1:1 complex; 6xHis (N); purchased EMD Millipore Sigma 14-602M
# Method in brief: as §1
# T1 sequence (P42336 whole entry H1047R): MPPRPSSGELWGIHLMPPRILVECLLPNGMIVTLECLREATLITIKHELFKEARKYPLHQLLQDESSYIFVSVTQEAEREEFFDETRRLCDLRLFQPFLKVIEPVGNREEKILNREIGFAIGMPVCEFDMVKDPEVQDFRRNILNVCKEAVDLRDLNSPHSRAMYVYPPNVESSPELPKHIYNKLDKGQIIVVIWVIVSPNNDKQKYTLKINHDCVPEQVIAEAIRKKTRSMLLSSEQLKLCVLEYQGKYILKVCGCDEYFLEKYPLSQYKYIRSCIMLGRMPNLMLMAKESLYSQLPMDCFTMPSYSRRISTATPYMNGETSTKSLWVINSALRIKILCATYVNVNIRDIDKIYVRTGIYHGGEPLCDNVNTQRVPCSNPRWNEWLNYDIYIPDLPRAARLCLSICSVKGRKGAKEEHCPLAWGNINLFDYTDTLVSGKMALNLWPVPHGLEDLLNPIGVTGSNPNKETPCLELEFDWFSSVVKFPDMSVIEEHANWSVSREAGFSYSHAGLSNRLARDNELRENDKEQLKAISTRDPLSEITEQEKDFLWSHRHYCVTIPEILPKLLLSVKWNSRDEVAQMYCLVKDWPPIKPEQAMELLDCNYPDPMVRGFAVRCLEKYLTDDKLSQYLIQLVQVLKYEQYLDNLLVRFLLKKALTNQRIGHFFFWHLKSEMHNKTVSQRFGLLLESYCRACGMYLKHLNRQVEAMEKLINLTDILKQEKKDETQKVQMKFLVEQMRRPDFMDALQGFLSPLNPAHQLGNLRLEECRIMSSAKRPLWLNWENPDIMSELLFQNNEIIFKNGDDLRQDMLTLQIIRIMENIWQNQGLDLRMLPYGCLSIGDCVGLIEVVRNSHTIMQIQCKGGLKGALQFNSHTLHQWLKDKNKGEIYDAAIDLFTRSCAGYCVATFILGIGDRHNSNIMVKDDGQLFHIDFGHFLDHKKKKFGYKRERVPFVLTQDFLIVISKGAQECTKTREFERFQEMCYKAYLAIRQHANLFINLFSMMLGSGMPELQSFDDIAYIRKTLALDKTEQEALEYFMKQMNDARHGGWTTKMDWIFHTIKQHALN
# T1 sequence (P27986 whole entry partner): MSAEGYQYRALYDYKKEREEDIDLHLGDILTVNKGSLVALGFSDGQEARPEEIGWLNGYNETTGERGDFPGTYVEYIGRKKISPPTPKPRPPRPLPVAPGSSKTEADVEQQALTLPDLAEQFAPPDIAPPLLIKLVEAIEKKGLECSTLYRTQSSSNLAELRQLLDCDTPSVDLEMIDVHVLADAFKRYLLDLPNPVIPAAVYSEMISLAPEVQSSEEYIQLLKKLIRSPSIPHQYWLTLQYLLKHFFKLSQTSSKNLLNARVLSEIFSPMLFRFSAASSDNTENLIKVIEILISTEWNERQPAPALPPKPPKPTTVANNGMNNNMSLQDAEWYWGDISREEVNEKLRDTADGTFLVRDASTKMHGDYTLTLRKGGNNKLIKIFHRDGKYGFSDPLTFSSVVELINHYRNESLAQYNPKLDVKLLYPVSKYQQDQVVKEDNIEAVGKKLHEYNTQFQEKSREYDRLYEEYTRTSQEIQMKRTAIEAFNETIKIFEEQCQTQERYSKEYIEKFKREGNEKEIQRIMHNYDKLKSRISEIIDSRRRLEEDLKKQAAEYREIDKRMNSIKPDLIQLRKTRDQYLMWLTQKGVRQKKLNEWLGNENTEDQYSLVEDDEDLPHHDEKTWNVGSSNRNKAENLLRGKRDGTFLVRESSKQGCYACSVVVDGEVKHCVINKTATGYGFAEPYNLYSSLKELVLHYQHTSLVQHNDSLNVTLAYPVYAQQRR
Compound,IC50 [1],IC50 [2],IC50 [3],"IC50 ([1]; Homo sapiens, MDA-MB-453, 3 h)"
"2-[[(1R)-1-[3,6-Dimethyl-4-oxo-2-[4-(1H-pyrazol-5-yl)phenyl]chromen-8-yl]ethyl]amino]benzoic acid [Example 169]",< 50 nM,< 500 nM,< 500 nM,–
"Cc1cc(C(C)Nc2ccccc2C(=O)O)c2oc(-c3cccc(C(C)(C)C#N)c3)cc(=O)c2c1 (single isomer, unassigned; isomer 1) [Example 4, 2-[1-[2-[3-(1-Cyano-1-methyl-ethyl)phenyl]-6-methyl-4-oxo-chromen-8-yl]ethylamino]benzoic acid, Isomer 1]",–,> 10000 nM,> 10000 nM,> 500 nM
"Cc1cc(C(C)Nc2ccccc2C(=O)O)c2oc(-c3ccc(C4(C#N)CC4)cc3)cc(=O)c2c1 (single isomer, unassigned; isomer 1) [Example 52, 2-[1-[2-[4-(l-Cyanocyclopropyl)phenyl]-6-methyl-4-oxo-chromen-8-yl]ethylamino]benzoic acid, Isomer 1]",–,5000 to 10000 nM,5000 to 10000 nM,> 500 nM
"Cc1cc(C(C)Nc2cccc(F)c2C(=O)O)c2oc(-c3cccc(F)c3)c(C)c(=O)c2c1 (single isomer, unassigned; isomer 1) [Example 105, 2-Fluoro-6-[1-[2-(3-fluorophenyl)-3,6-dimethyl-4-oxo-chromen-8-yl]ethylamino]benzoic acid, Isomer 1]",< 50 nM,< 500 nM,1000 to 5000 nM,–
"COc1ccc(NC(C)c2cc(C)cc3c(=O)c(C)c(-c4ccccc4)oc23)c(C(=O)O)n1 (single isomer, unassigned; isomer 1) [Example 109, 3-[1-(3,6-Dimethyl-4-oxo-2-phenyl-chromen-8-yl)ethylamino]-6-methoxy-pyridine-2-carboxylic acid, Isomer 1]",< 50 nM,< 500 nM,500 to 1000 nM,–
"Cc1cc(C(C)Nc2ccccc2C(=O)O)c2oc(-c3ccccc3)c(F)c(=O)c2c1 (single isomer, unassigned; isomer 1) [Example 132, 2-[1-(3-Fluoro-6-methyl-4-oxo-2-phenyl-chromen-8-yl)ethylamino]benzoic acid, Isomer 1]",–,< 500 nM,1000 to 5000 nM,< 50 nM
"Cc1cc([C@@H](C)Nc2ccc(C#N)cc2C(=O)O)c2oc(-c3ccccc3)c(C)c(=O)c2c1 (single isomer, unassigned; isomer 1) [Example 157]",> 500 nM,5000 to 10000 nM,5000 to 10000 nM,–
"Cc1cc([C@@H](C)Nc2ccc(C#N)nc2C(=O)O)c2oc(-c3ccccc3)c(C)c(=O)c2c1 (single isomer, unassigned; isomer 1) [Example 159]",–,< 500 nM,500 to 1000 nM,< 50 nM
"Cc1cc(C(C)Nc2ccccc2C(=O)O)c2oc(-c3ccc(C(=O)N(C)C)cc3)cc(=O)c2c1 (single isomer, unassigned; isomer 2) [Example 50, 2-[1-[2-[4-(Dimethylcarbamoyl)-phenyl]-6-methyl-4-oxo-chromen-8-yl]ethylamino]benzoic acid, Isomer 2]",–,5000 to 10000 nM,> 10000 nM,> 500 nM
"Cc1cc(C(C)Nc2ccccc2C(=O)O)c2oc(-c3ccc(N4CCCC4)cc3)cc(=O)c2c1 (single isomer, unassigned; isomer 2) [Example 55, 2-[1-[6-Methyl-4-oxo-2-(4-pyrrolidin-1-ylphenyl)chromen-8-yl]ethylamino]benzoic acid, Isomer 2]",–,< 500 nM,1000 to 5000 nM,100 to 500 nM
"Cc1cc(C(C)Nc2ccccc2C(=O)O)c2oc(-c3ccccc3)c(C#N)c(=O)c2c1 (single isomer, unassigned; isomer 2) [Example 62, 2-[1-(3-Cyano-6-methyl-4-oxo-2-phenyl-chromen-8-yl)ethylamino]benzoic acid, Isomer 2]",–,< 500 nM,< 500 nM,< 50 nM
"Cc1cc(C(C)Nc2cccc(F)c2C(=O)O)c2oc(-c3ccccc3F)c(C)c(=O)c2c1 (single isomer, unassigned; isomer 2) [Example 104, 2-Fluoro-6-[1-[2-(2-fluorophenyl)-3,6-dimethyl-4-oxo-chromen-8-yl]ethylamino]benzoic acid, Isomer 2]",–,500 to 1000 nM,> 10000 nM,100 to 500 nM
"Cc1cc(C(C)Nc2cccc(F)c2C(=O)O)c2oc(-c3cccc(F)c3)c(C)c(=O)c2c1 (single isomer, unassigned; isomer 2) [Example 106, 2-Fluoro-6-[1-[2-(3-fluorophenyl)-3,6-dimethyl-4-oxo-chromen-8-yl]ethylamino]benzoic acid, Isomer 2]",> 500 nM,1000 to 5000 nM,1000 to 5000 nM,–
"Cc1cc(C(C)Nc2cccc(F)c2C(=O)O)c2oc(-c3ccccc3F)cc(=O)c2c1 (single isomer, unassigned; isomer 2) [Example 108, 2-Fluoro-6-[1-[2-(2-fluorophenyl)-6-methyl-4-oxo-chromen-8-yl]ethylamino]benzoic acid, Isomer 2]",–,5000 to 10000 nM,> 10000 nM,> 500 nM
"COc1ccc(NC(C)c2cc(C)cc3c(=O)c(C)c(-c4ccccc4)oc23)c(C(=O)O)n1 (single isomer, unassigned; isomer 2) [Example 110, 3-[1-(3,6-Dimethyl-4-oxo-2-phenyl-chromen-8-yl)ethylamino]-6-methoxy-pyridine-2-carboxylic acid, Isomer 2]",> 500 nM,1000 to 5000 nM,1000 to 5000 nM,–
"Cc1cc(C(C)Nc2ccccc2C(=O)O)c2oc(-c3ccccc3)c(F)c(=O)c2c1 (single isomer, unassigned; isomer 2) [Example 133, 2-[1-(3-Fluoro-6-methyl-4-oxo-2-phenyl-chromen-8-yl)ethylamino]benzoic acid, Isomer 2]",50 to 100 nM,< 500 nM,1000 to 5000 nM,–
"Cc1cc([C@@H](C)Nc2ccc(C#N)cc2C(=O)O)c2oc(-c3ccccc3)c(C)c(=O)c2c1 (single isomer, unassigned; isomer 2) [Example 158]",< 50 nM,< 500 nM,1000 to 5000 nM,–
"Cc1cc([C@@H](C)Nc2ccc(C#N)nc2C(=O)O)c2oc(-c3ccccc3)c(C)c(=O)c2c1 (single isomer, unassigned; isomer 2) [Example 160]",100 to 500 nM,< 500 nM,1000 to 5000 nM,–
"Cc1cc([C@@H](C)Nc2ccc(Cl)nc2C(=O)O)c2oc(-c3ccccc3)c(C)c(=O)c2c1 [Example 1, 6-Chloro-3-[[(1R)-1-(3,6-dimethyl-4-oxo-2-phenyl-chromen-8-yl)ethyl]amino]pyridine-2-carboxylic acid]",–,< 500 nM,500 to 1000 nM,< 50 nM
